The text below walks through data of ChEMBL document CHEMBL2074089, “Methotrexate is excreted into the bile by canalicular multispecific organic anion transporter in rats” (Cancer Res, 1997).

Common to all, as to assay type: functional, cell membranes, Sprague-Dawley, Bile canalicular membrane vesicle
The target in series [1] is T1, ATP-binding cassette sub-family C member 2 (Rattus norvegicus, UniProt Q63120). Description: TP_TRANSPORTER: inhibition of L-MTX uptake in bile canalicular membrane vesicles from SD rat.
Series [2] concerns the target T1, ATP-binding cassette sub-family C member 2. Description: TP_TRANSPORTER: inhibition of DNP-SG uptake in bile canalicular membrane vesicles from SD rat.
Substrate in series [3]: CN(Cc1cnc2nc(N)nc(N)c2n1)c1ccc(C(=O)N[C@@H](CCC(=O)O)C(=O)O)cc1
Description: (§1) TP_TRANSPORTER: uptake in bile canalicular membrane vesicles from SD rat.

Substrate in series [4]: N[C@@H](CCC(=O)N[C@H](CSc1ccc([N+](=O)[O-])cc1[N+](=O)[O-])C(=O)NCC(=O)O)C(=O)O
Described as §1.

The Ki is a dissociation constant, usually derived from enzyme kinetics or from competition with a known ligand. A higher Ki goes with weaker binding. As to `CN(Cc1cnc2nc(N)nc(N)c2n1)c1ccc(C(=O)N[C@H](CCC(=O)O)C(=O)O)cc1`, in series [1], the affinity, expressed as Ki, was 92.8 µM.

`CN(Cc1cnc2nc(N)nc(N)c2n1)c1ccc(C(=O)N[C@@H](CCC(=O)O)C(=O)O)cc1` [METHOTREXATE]: the Ki in series [2] turned out to be 236 µM; in series [1] it was 326 µM.

B1: ATP-binding cassette sub-family C member 2 (Rattus norvegicus) (protein)
chain: MDKFCNSTFWDLSLLESPEADLPLCFEQTVLVWIPLGFLWLLAPWQLYSVYRSRTKRSSITKFYLAKQVFVVFLLILAAIDLSLALTEDTGQATVPPVRYTNPILYLCTWLLVLAVQHSRQWCVRKNSWFLSLFWILSVLCGVFQFQTLIRALLKDSKSNMAYSYLFFVSYGFQIVLLILTAFSGPSDSTQTPSVTASFLSSITFSWYDRTVLKGYKHPLTLEDVWDIDEGFKTRSVTSKFEAAMTKDLQKARQAFQRRLQKSQRKPEATLHGLNKKQSQSQDVLVLEEAKKKSEKTTKDYPKSWLIKSLFKTFHVVILKSFILKLIHDLLVFLNPQLLKLLIGFVKSSNSYVWFGYICAILMFAVTLIQSFCLQSYFQHCFVLGMCVRTTVMSSIYKKALTLSNLARKQYTIGETVNLMSVDSQKLMDATNYMQLVWSSVIQITLSIFFLWRELGPSILAGVGVMVLLIPVNGVLATKIRNIQVQNMKNKDKRLKIMNEILSGIKILKYFAWEPSFQEQVQGIRKKELKNLLRFGQLQSLLIFILQITPILVSVVTFSVYVLVDSANVLNAEKAFTSITLFNILRFPLSMLPMVTSSILQASVSVDRLERYLGGDDLDTSAIRRVSNFDKAVKFSEASFTWDPDLEATIQDVNLDIKPGQLVAVVGTVGSGKSSLVSAMLGEMENVHGHITIQGSTAYVPQQSWIQNGTIKDNILFGSEYNEKKYQQVLKACALLPDLEILPGGDMAEIGEKGINLSGGQKQRVSLARAAYQDADIYILDDPLSAVDAHVGKHIFNKVVGPNGLLAGKTRIFVTHGIHFLPQVDEIVVLGKGTILEKGSYRDLLDKKGVFARNWKTFMKHSGPEGEATVNNDSEAEDDDDGLIPTMEEIPEDAASLAMRRENSLRRTLSRSSRSSSRRGKSLKNSLKIKNVNVLKEKEKEVEGQKLIKKEFVETGKVKFSIYLKYLQAVGWWSILFIILFYGLNNVAFIGSNLWLSAWTSDSDNLNGTNNSSSHRDMRIGVFGALGLAQGICLLISTLWSIYACRNASKALHGQLLTNILRAPMRFFDTTPTGRIVNRFSGDISTVDDLLPQTLRSWMMCFFGIAGTLVMICMATPVFAIIIIPLSILYISVQVFYVATSRQLRRLDSVTKSPIYSHFSETVTGLPIIRAFEHQQRFLAWNEKQIDINQKCVFSWITSNRWLAIRLELVGNLVVFCSALLLVIYRKTLTGDVVGFVLSNALNITQTLNWLVRMTSEAETNIVAVERISEYINVENEAPWVTDKRPPADWPRHGEIQFNNYQVRYRPELDLVLKGITCNIKSGEKVGVVGRTGAGKSSLTNCLFRILESAGGQIIIDGIDVASIGLHDLRERLTIIPQDPILFSGSLRMNLDPFNKYSDEEVWRALELAHLRSFVSGLQLGLLSEVTEGGDNLSIGQRQLLCLGRAVLRKSKILVLDEATAAVDLETDSLIQTTIRKEFSQCTVITIAHRLHTIMDSDKIMVLDNGKIVEYGSPEELLSNRGSFYLMAKEAGIENVNHTEL
Broadly, the Km is the concentration of substrate that gives half-maximal velocity. For the molecule B1, the Km in series [3] was found to be 296 µM; in series [4], 10.7 µM.
